Results reported in patent US20260191965A1 (priority 2022, published 2026).
In brackets after ≈: the same amount, converted by molar mass. Read-outs that look alike come from different tables or passages of the source.

Columns and labels:
[1] = tested on: clinical isolates of Mycobacterium tuberculosis; assay: microbe, parasite or virus in culture; format: cell-based; settings: for MIC: Mycobacterium tuberculosis
[2] = tested on: Mycobacterium tuberculosis H37Rv (ATCC 27294); format: cell-based; settings: for Log reduction in CFU: vs drug-free control
[3] = tested on: M. tuberculosis Erdman pFCA LuxAB; settings: for reduction compared to the vehicle group: conjugate 100, rifampicin 10, metronidazole 200 mg/kg; for Log reduction compared to untreated group / Log10 CFU counts in the lungs, Average: QD for 12 days; for Log reduction compared to untreated group / Log10 CFU counts in the lungs, Mouse A / Log10 CFU counts in the lungs, Mouse B / Log10 CFU counts in the lungs, Mouse C / Log10 CFU counts in the lungs, Mouse D / Log10 CFU counts in the lungs, Mouse E / Log10 CFU counts in the lungs, Mouse F / Log10 CFU counts in the lungs, Average: conjugate 100, linezolid 100, PA-824 50, rifampicin 10, metronidazole 200 mg/kg; for Log10 CFU counts in the lungs, Mouse A / Log10 CFU counts in the lungs, Mouse B / Log10 CFU counts in the lungs, Mouse C / Log10 CFU counts in the lungs, Mouse D / Log10 CFU counts in the lungs, Mouse E / Log10 CFU counts in the lungs, Mouse F / Log10 CFU counts in the lungs, Average: day 21; for Log10 CFU counts in the lungs, Mouse A / Log10 CFU counts in the lungs, Mouse B / Log10 CFU counts in the lungs, Mouse C / Log10 CFU counts in the lungs, Mouse D / Log10 CFU counts in the lungs, Mouse E / Log10 CFU counts in the lungs, Mouse F: QD for 12 days from day 7; for Log10 CFU counts in the lungs, Average: group average, 6 mice
[4] = 168 h, clinical isolate strain 1, air with 5% CO2, 7H9/10% OADC, 7 days
[5] = 168 h, clinical isolate strain 2, air with 5% CO2, 7H9/10% OADC, 7 days
[6] = 168 h, clinical isolate strain 3, air with 5% CO2, 7H9/10% OADC, 7 days
[7] = 168 h, clinical isolate strain 4, air with 5% CO2, 7H9/10% OADC, 7 days
[8] = 168 h, clinical isolate strain 5, air with 5% CO2, 7H9/10% OADC, 7 days
[9] = 168 h, clinical isolate strain 6, air with 5% CO2, 7H9/10% OADC, 7 days
[10] = 168 h, clinical isolate strain 7, air with 5% CO2, 7H9/10% OADC, 7 days
[11] = 168 h, clinical isolate strain 8, air with 5% CO2, 7H9/10% OADC, 7 days
[12] = 168 h, clinical isolate strain 9, air with 5% CO2, 7H9/10% OADC, 7 days
[13] = 168 h, clinical isolate strain 10, air with 5% CO2, 7H9/10% OADC, 7 days
[14] = 168 h, clinical isolate strain 11 (sensitive strain), air with 5% CO2, 7H9/10% OADC, 7 days
[15] = read-out: MIC values against sensitive tuberculosis strains, sensitive tuberculosis strains, air containing 5% CO2

CO[C@H]1/C=C/O[C@@]2(C)Oc3c(C)c(O)c4c(c3C2=O)C2=NC3(CCN(CCn5c([N+](=O)[O-])cnc5C)CC3)NC2=C(NC(=O)/C(C)=C\C=C\[C@H](C)[C@H](O)[C@@H](C)[C@@H](O)[C@@H](C)[C@H](OC(C)=O)[C@@H]1C)C4=O
MIC [1, 4]: 2 µg/mL (≈ 2.12 µM) | MIC [1, 5]: 0.5 µg/mL (≈ 0.53 µM) | MIC [1, 6]: 2 µg/mL (≈ 2.12 µM) | MIC [1, 7]: 2 µg/mL (≈ 2.12 µM) | MIC [1, 8]: 2 µg/mL (≈ 2.12 µM) | MIC [1, 9]: 1 µg/mL (≈ 1.06 µM) | MIC [1, 10]: 2 µg/mL (≈ 2.12 µM) | MIC [1, 11]: 2 µg/mL (≈ 2.12 µM) | MIC [1, 12]: 0.5 µg/mL (≈ 0.53 µM) | MIC [1, 13]: 1 µg/mL (≈ 1.06 µM) | MIC [1, 14]: 0.016 µg/mL (≈ 0.0169 µM) | MIC [1, 15]: 0.016 µg/mL (≈ 0.0169 µM) | reduction of bacterial count of wild-type Mycobacterium Tuberculosis compared to the drug-free group ([2]; at both tested concentrations (20 μg/mL and 5 μg/mL)): > 4 Log10 CFU | CFU/mL ([2]; concentration 5 μg/mL): 9.75E+03 CFU/mL | Log reduction in CFU ([2]; concentration 5 μg/mL): 4.39 | CFU/mL ([2]; concentration 20 μg/mL): 2.50E+03 CFU/mL | Log reduction in CFU ([2]; concentration 20 μg/mL): 4.98 | reduction compared to the pre-treatment ([3]; […], 100 mg/kg orally QD, 12 consecutive days): 0.69 log CFU | reduction compared to the vehicle group ([3]; […], 12 consecutive days): 4 log CFU | Log reduction compared to untreated group ([3]; […]): 4.18 | activity compared to vehicle, rifampicin, metronidazole, linezolid and PA-824 control groups ([3]; […], one-way ANOVA, 95% level of confidence): significantly superior | Log10 CFU counts in the lungs, Mouse A [3]: 2.48 Log10 CFU | Log10 CFU counts in the lungs, Mouse B [3]: 2.18 Log10 CFU | Log10 CFU counts in the lungs, Mouse C [3]: 3.02 Log10 CFU | Log10 CFU counts in the lungs, Mouse D [3]: 2.48 Log10 CFU | Log10 CFU counts in the lungs, Mouse E [3]: 3.80 Log10 CFU | Log10 CFU counts in the lungs, Mouse F [3]: 2.18 Log10 CFU | Log10 CFU counts in the lungs, Average [3]: 2.69 Log10 CFU | drug-related tolerance issues ([3]; mice, after 12 consecutive days of administration, 100 mg/kg QD): no drug-related tolerance issues were observed

NNC(=O)c1ccncc1 [Isoniazid, isoniazid]
MIC [1, 4]: > 40 µg/mL | MIC [1, 5]: 2.5 µg/mL (≈ 18.2 µM) | MIC [1, 6]: 10 µg/mL (≈ 72.9 µM) | MIC [1, 7]: > 40 µg/mL | MIC [1, 8]: 5 µg/mL (≈ 36.5 µM) | MIC [1, 9]: 0.313 µg/mL (≈ 2.28 µM) | MIC [1, 10]: 5 µg/mL (≈ 36.5 µM) | MIC [1, 11]: 2.5 µg/mL (≈ 18.2 µM) | MIC [1, 12]: > 40 µg/mL | MIC [1, 13]: > 40 µg/mL | MIC [1, 14]: 0.039 µg/mL (≈ 0.284 µM) | MIC [1, 15]: 0.039 µg/mL (≈ 0.284 µM) | CFU/mL ([2]; concentration 10 μg/mL): 3.14E+08 CFU/mL | Log reduction in CFU ([2]; concentration 10 μg/mL): −0.12

Cc1ncc([N+](=O)[O-])n1CCO [Metronidazole, metronidazole]
MIC [1, 4]: > 32 µg/mL | MIC [1, 5]: > 32 µg/mL | MIC [1, 6]: > 32 µg/mL | MIC [1, 7]: > 32 µg/mL | MIC [1, 8]: > 32 µg/mL | MIC [1, 9]: > 32 µg/mL | MIC [1, 10]: > 32 µg/mL | MIC [1, 11]: > 32 µg/mL | MIC [1, 12]: > 32 µg/mL | MIC [1, 13]: > 32 µg/mL | MIC [1, 14]: > 32 µg/mL | activity against the tested strains ([1]; all tested strains, air containing 5% CO2): no activity | CFU/mL ([2]; concentration 20 μg/mL): 1.66E+08 CFU/mL | Log reduction in CFU ([2]; concentration 20 μg/mL): 0.16 | CFU/mL ([2]; concentration 50 μg/mL): 1.02E+08 CFU/mL | Log reduction in CFU ([2]; concentration 50 μg/mL): 0.37 | reduction compared to the vehicle group ([3]; […], 12 consecutive days): 0.09 log CFU | Log reduction compared to untreated group ([3]; […]): 0.02 | Log10 CFU counts in the lungs, Mouse A [3]: 6.95 Log10 CFU | Log10 CFU counts in the lungs, Mouse B [3]: 6.95 Log10 CFU | Log10 CFU counts in the lungs, Mouse C [3]: 6.15 Log10 CFU | Log10 CFU counts in the lungs, Mouse D [3]: 6.60 Log10 CFU | Log10 CFU counts in the lungs, Mouse E [3]: 7.11 Log10 CFU | Log10 CFU counts in the lungs, Mouse F [3]: 7.31 Log10 CFU | Log10 CFU counts in the lungs, Average [3]: 6.85 Log10 CFU

O=[N+]([O-])c1cn2c(n1)OC[C@@H](OCc1ccc(OC(F)(F)F)cc1)C2 [PA-824]
Log reduction compared to untreated group ([3]; […]): 3.04 | Log10 CFU counts in the lungs, Mouse A [3]: 3.29 Log10 CFU | Log10 CFU counts in the lungs, Mouse B [3]: 4.00 Log10 CFU | Log10 CFU counts in the lungs, Mouse C [3]: 4.06 Log10 CFU | Log10 CFU counts in the lungs, Mouse D [3]: 3.65 Log10 CFU | Log10 CFU counts in the lungs, Mouse E [3]: 4.01 Log10 CFU | Log10 CFU counts in the lungs, Mouse F [3]: 3.97 Log10 CFU | Log10 CFU counts in the lungs, Average [3]: 3.83 Log10 CFU

CO[C@H]1/C=C/O[C@@]2(C)Oc3c(C)c(O)c4c(c3C2=O)C2=NC3(CCN(CC(C)C)CC3)NC2=C(NC(=O)/C(C)=C\C=C\[C@H](C)[C@H](O)[C@@H](C)[C@@H](O)[C@@H](C)[C@H](OC(C)=O)[C@@H]1C)C4=O [Rifabutin, rifabutin]
CFU/mL ([2]; concentration 5 μg/mL): 9.77E+07 CFU/mL | Log reduction in CFU ([2]; concentration 5 μg/mL): 0.39 | CFU/mL ([2]; concentration 20 μg/mL): 7.19E+06 CFU/mL | Log reduction in CFU ([2]; concentration 20 μg/mL): 1.52

CO[C@H]1/C=C/O[C@@]2(C)Oc3c(C)c(O)c4c(O)c(c(/C=N/N5CCN(C)CC5)c(O)c4c3C2=O)NC(=O)/C(C)=C\C=C\[C@H](C)[C@H](O)[C@@H](C)[C@@H](O)[C@@H](C)[C@H](OC(C)=O)[C@@H]1C [Rifampicin, rifampicin]
MIC [1, 4]: > 40 µg/mL | MIC [1, 5]: 5 µg/mL (≈ 6.08 µM) | MIC [1, 6]: > 40 µg/mL | MIC [1, 7]: > 40 µg/mL | MIC [1, 8]: > 40 µg/mL | MIC [1, 9]: > 40 µg/mL | MIC [1, 10]: > 40 µg/mL | MIC [1, 11]: > 40 µg/mL | MIC [1, 12]: 20 µg/mL (≈ 24.3 µM) | MIC [1, 13]: 40 µg/mL (≈ 48.6 µM) | MIC [1, 14]: 0.039 µg/mL (≈ 0.0474 µM) | MIC [1, 15]: 0.039 µg/mL (≈ 0.0474 µM) | CFU/mL ([2]; concentration 5 μg/mL): 2.19E+07 CFU/mL | Log reduction in CFU ([2]; concentration 5 μg/mL): 1.04 | CFU/mL ([2]; concentration 20 μg/mL): 1.23E+07 CFU/mL | Log reduction in CFU ([2]; concentration 20 μg/mL): 1.29 | reduction compared to the vehicle group ([3]; […], 12 consecutive days): 0.65 log CFU | Log reduction compared to untreated group ([3]; […]): 0.58 | Log10 CFU counts in the lungs, Mouse A [3]: 6.29 Log10 CFU | Log10 CFU counts in the lungs, Mouse B [3]: 6.55 Log10 CFU | Log10 CFU counts in the lungs, Mouse C [3]: 6.66 Log10 CFU | Log10 CFU counts in the lungs, Mouse D [3]: 6.24 Log10 CFU | Log10 CFU counts in the lungs, Mouse E [3]: 5.52 Log10 CFU | Log10 CFU counts in the lungs, Mouse F [3]: 6.46 Log10 CFU | Log10 CFU counts in the lungs, Average [3]: 6.29 Log10 CFU

CO[C@H]1/C=C/O[C@@]2(C)Oc3c(C)c(O)c4c(O)c(c(/C=N/N5CCN(C6CCCC6)CC5)c(O)c4c3C2=O)NC(=O)/C(C)=C\C=C\[C@H](C)[C@H](O)[C@@H](C)[C@@H](O)[C@@H](C)[C@H](OC(C)=O)[C@@H]1C [Rifapentine, rifapentine]
CFU/mL ([2]; concentration 5 μg/mL): 1.80E+07 CFU/mL | Log reduction in CFU ([2]; concentration 5 μg/mL): 1.12 | CFU/mL ([2]; concentration 20 μg/mL): 1.91E+07 CFU/mL | Log reduction in CFU ([2]; concentration 20 μg/mL): 1.1

CC(=O)NC[C@H]1CN(c2ccc(N3CCOCC3)c(F)c2)C(=O)O1 [linezolid]
Log reduction compared to untreated group ([3]; […]): 1.57 | Log10 CFU counts in the lungs, Mouse A [3]: 5.86 Log10 CFU | Log10 CFU counts in the lungs, Mouse B [3]: 4.61 Log10 CFU | Log10 CFU counts in the lungs, Mouse C [3]: 5.76 Log10 CFU | Log10 CFU counts in the lungs, Mouse D [3]: 4.59 Log10 CFU | Log10 CFU counts in the lungs, Mouse E [3]: 5.13 Log10 CFU | Log10 CFU counts in the lungs, Average [3]: 5.30 Log10 CFU
